Values joined by “and” are separate entries in the source; they are usually repeats but may differ in a detail not shown here. Equal entries are not always repeated. Toxic doses and inconclusive results are not listed.
Tested on: P388 leukemia ip, CD2F1 mice, survival T/C
Experiment: NCI In Vivo Anticancer Drug Screen. Data for tumor model P388 Leukemia (intraperitoneal) in CD2F1 (CDF1) mice
Conditions: endpoint: median survival time, higher = longer survival
In short: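 Mice carrying the transplanted tumor received test compound or vehicle. Survival was recorded in each group, and the value is the treated-group measurement divided by that of the vehicle-treated control group.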

[1] = dose: 50.0 mg/kg/injection, schedule: Q01DX005 (ip), vehicle: saline
[2] = dose: 100.0 mg/kg/injection, schedule: Q01DX005 (ip), vehicle: saline
[3] = dose: 200.0 mg/kg/injection, schedule: Q01DX005 (ip), vehicle: saline
[4] = dose: 60.0 mg/kg/injection, schedule: Q01DX005 (ip), vehicle: saline with Tween-80
[5] = dose: 120.0 mg/kg/injection, schedule: Q01DX005 (ip), vehicle: saline with Tween-80
[6] = dose: 240.0 mg/kg/injection, schedule: Q01DX005 (ip), vehicle: saline with Tween-80
[7] = dose: 50.0 mg/kg/injection, schedule: Q01DX009 (ip), vehicle: Klucel (hydroxypropylcellulose) (HPC)
[8] = dose: 50.0 mg/kg/injection, schedule: Q01DX009 (ip), vehicle: saline with Tween-80
[9] = dose: 100.0 mg/kg/injection, schedule: Q01DX009 (ip), vehicle: Klucel (hydroxypropylcellulose) (HPC)
[10] = dose: 100.0 mg/kg/injection, schedule: Q01DX009 (ip), vehicle: saline with Tween-80
[11] = dose: 200.0 mg/kg/injection, schedule: Q01DX009 (ip), vehicle: Klucel (hydroxypropylcellulose) (HPC)
[12] = dose: 200.0 mg/kg/injection, schedule: Q01DX009 (ip), vehicle: saline with Tween-80
[13] = dose: 50.0 mg/kg/injection, schedule: Q01DX009 (ip), vehicle: saline
[14] = dose: 6.25 mg/kg/injection, schedule: Q01DX009 (ip), vehicle: saline
[15] = dose: 12.5 mg/kg/injection, schedule: Q01DX009 (ip), vehicle: saline
[16] = dose: 6.25 mg/kg/injection, schedule: Q01DX005 (ip), vehicle: saline with Tween-80
[17] = dose: 12.5 mg/kg/injection, schedule: Q01DX005 (ip), vehicle: saline with Tween-80

Compound: CC(O)(CO)CC(C)(O)CO (configuration not stated)
- T/C [1]: 97 % of control
- T/C [2]: 105 % of control
- T/C [3]: 103 % of control

Compound: C=CCN(CC=C)C(=O)Nc1cccc2c(NC(=O)N(CC=C)CC=C)cccc12
- T/C [4]: 93 % of control
- T/C [5]: 97 % of control
- T/C [6]: 97 % of control

Compound: CCCCCC[Se][Se]CCCCCC
- T/C (dose: 3.12 mg/kg/injection, schedule: Q01DX005 (ip), vehicle: Klucel (hydroxypropylcellulose) (HPC)): 98 % of control
- T/C (dose: 6.25 mg/kg/injection, schedule: Q01DX005 (ip), vehicle: Klucel (hydroxypropylcellulose) (HPC)): 97 % of control
- T/C (dose: 12.5 mg/kg/injection, schedule: Q01DX005 (ip), vehicle: Klucel (hydroxypropylcellulose) (HPC)): 106 % of control
- T/C (dose: 25.0 mg/kg/injection, schedule: Q01DX005 (ip), vehicle: Klucel (hydroxypropylcellulose) (HPC)): 104 % of control

Compound: O=C(Nc1ccccc1O)C1C(=O)C(=O)N(c2ccccc2O)C1=O (configuration not stated)
- T/C (dose: 25.0 mg/kg/injection, schedule: Q01DX009 (ip), vehicle: saline with Tween-80): 97 % of control
- T/C [7]: 101 % of control and 105 % of control and 107 % of control
- T/C [8]: 105 % of control
- T/C [9]: 99 % of control and 101 % of control (2×)
- T/C [10]: 97 % of control
- T/C [11]: 106 % of control
- T/C [12]: 102 % of control

Compound: CC(=O)OCC1OC(Nc2[nH]c(=O)[nH]c(=O)c2C(=O)CCl)C(OC(C)=O)C(OC(C)=O)C1OC(C)=O (configuration not stated)
- T/C (dose: 100.0 mg/kg/injection, schedule: Q04DX002 (ip), vehicle: saline with Tween-80): 121 % of control
- T/C (dose: 200.0 mg/kg/injection, schedule: Q04DX002 (ip), vehicle: saline with Tween-80): 111 % of control
- T/C (dose: 400.0 mg/kg/injection, schedule: Q04DX002 (ip), vehicle: saline with Tween-80): 99 % of control

Compound: NC(=O)N/N=C1\CCn2cccc21
- T/C [4]: 92 % of control
- T/C [5]: 95 % of control

Compound: O=C(C1CC2C=CC1C2)N1CCCCC1 (configuration not stated)
- T/C [13]: 90 % of control
- T/C (dose: 100.0 mg/kg/injection, schedule: Q01DX009 (ip), vehicle: saline): 91 % of control
- T/C (dose: 200.0 mg/kg/injection, schedule: Q01DX009 (ip), vehicle: saline): 98 % of control

Compound: CCOC(=O)Nc1cc2c(c(N)n1)N=C(c1ccccc1)CO2
- T/C (dose: 25.0 mg/kg/injection, schedule: Q01DX005 (ip), vehicle: saline with Tween-80): 102 % of control and 112 % of control

Compound: COc1cc(C(=O)NC2CCc3cc(OC)c(OC)c(OC)c3-c3ccc(OC)c(=O)cc32)cc(OC)c1OC (configuration not stated)
- T/C (dose: 1.25 mg/kg/injection, schedule: Q01DX009 (ip), vehicle: Klucel (hydroxypropylcellulose) (HPC)): 119 % of control
- T/C (dose: 2.5 mg/kg/injection, schedule: Q01DX009 (ip), vehicle: Klucel (hydroxypropylcellulose) (HPC)): 124 % of control
- T/C (dose: 10.0 mg/kg/injection, schedule: Q01DX009 (ip), vehicle: Klucel (hydroxypropylcellulose) (HPC)): 152 % of control and 154 % of control
- T/C (dose: 20.0 mg/kg/injection, schedule: Q01DX009 (ip), vehicle: Klucel (hydroxypropylcellulose) (HPC)): 155 % of control and 163 % of control

Compound: Nc1cc(C(CC(=O)NO)NO)ccc1[N+](=O)[O-] (configuration not stated)
- T/C [7]: 94 % of control
- T/C [9]: 110 % of control
- T/C [11]: 102 % of control

Compound: O=C1C2C3CCC(O3)C2C(=O)N1SC(Cl)(Cl)Cl (configuration not stated)
- T/C (dose: 3.12 mg/kg/injection, schedule: Q01DX009 (ip), vehicle: saline): 101 % of control
- T/C [14]: 108 % of control
- T/C [15]: 100 % of control

Compound: Nc1nc(I)c2ncn(C3OC(CO)C(O)C3O)c2n1 (configuration not stated)
- T/C (dose: 50.0 mg/kg/injection, schedule: Q01DX005 (ip), vehicle: saline with Tween-80): 98 % of control
- T/C (dose: 100.0 mg/kg/injection, schedule: Q01DX005 (ip), vehicle: saline with Tween-80): 92 % of control
- T/C (dose: 200.0 mg/kg/injection, schedule: Q01DX005 (ip), vehicle: saline with Tween-80): 96 % of control

Compound: O=C(O)Cc1nn[nH]n1
- T/C (dose: 100.0 mg/kg/injection, schedule: Q04DX003 (ip), vehicle: Klucel (hydroxypropylcellulose) (HPC)): 107 % of control
- T/C (dose: 200.0 mg/kg/injection, schedule: Q04DX003 (ip), vehicle: Klucel (hydroxypropylcellulose) (HPC)): 108 % of control

Compound: Cc1cc(=O)n2c(nc3ccccc32)o1
- T/C (dose: 60.0 mg/kg/injection, schedule: Q01DX005 (ip), vehicle: Klucel (hydroxypropylcellulose) (HPC)): 104 % of control
- T/C (dose: 120.0 mg/kg/injection, schedule: Q01DX005 (ip), vehicle: Klucel (hydroxypropylcellulose) (HPC)): 104 % of control
- T/C (dose: 240.0 mg/kg/injection, schedule: Q01DX005 (ip), vehicle: Klucel (hydroxypropylcellulose) (HPC)): 99 % of control

Compound: COc1ccc(N2C(=O)C3CSCN3C2=O)cc1 (configuration not stated)
- T/C [4]: 100 % of control
- T/C [5]: 94 % of control
- T/C [6]: 92 % of control

Compound: CN(C)CC1CCCC(CN(C)C)C1O (configuration not stated)
- T/C [1]: 99 % of control
- T/C [2]: 94 % of control
- T/C [3]: 93 % of control

Compound: Cc1cc(C)c(C#N)c(NN)n1
- T/C [16]: 99 % of control
- T/C [17]: 103 % of control

Compound: CCCCCCCCC1SC1CCCCCCCC(=O)OCC1CS1 (configuration not stated)
- T/C (dose: 100.0 mg/kg/injection, schedule: Q01DX001 (ip), vehicle: other): 100 % of control
- T/C (dose: 200.0 mg/kg/injection, schedule: Q01DX001 (ip), vehicle: other): 100 % of control
- T/C (dose: 400.0 mg/kg/injection, schedule: Q01DX001 (ip), vehicle: other): 100 % of control

Compound: C/C(Cl)=C\c1nc2ccccc2nc1Cl
- T/C (dose: 100.0 mg/kg/injection, schedule: Q01DX001 (ip), vehicle: Klucel (hydroxypropylcellulose) (HPC)): 100 % of control
- T/C (dose: 200.0 mg/kg/injection, schedule: Q01DX001 (ip), vehicle: Klucel (hydroxypropylcellulose) (HPC)): 92 % of control
- T/C (dose: 400.0 mg/kg/injection, schedule: Q01DX001 (ip), vehicle: Klucel (hydroxypropylcellulose) (HPC)): 92 % of control

Compound: Cc1cc(O)c2c(c1)C(=O)c1cccc(O)c1C2=O
- T/C [14]: 100 % of control
- T/C [15]: 111 % of control
- T/C (dose: 25.0 mg/kg/injection, schedule: Q01DX009 (ip), vehicle: saline): 117 % of control
- T/C [13]: 108 % of control

Compound: CC1(C)CC(=O)N(Cc2ccccc2)N1C(=O)c1ccccc1
- T/C (dose: 50.0 mg/kg/injection, schedule: Q01DX001 (ip), vehicle: saline with Tween-80): 100 % of control
- T/C (dose: 100.0 mg/kg/injection, schedule: Q01DX001 (ip), vehicle: saline with Tween-80): 95 % of control
- T/C (dose: 200.0 mg/kg/injection, schedule: Q01DX001 (ip), vehicle: saline with Tween-80): 100 % of control

Compound: CCCCC1CN=C(OCC)N1 (configuration not stated)
- T/C [16]: 104 % of control
- T/C [17]: 98 % of control

Compound: COc1ccc(C(=O)C(c2ccc(OC)c(OC)c2O)C(OC)OC)c(O)c1 (configuration not stated)
- T/C (dose: 75.0 mg/kg/injection, schedule: Q04DX003 (ip), vehicle: Klucel (hydroxypropylcellulose) (HPC)): 100 % of control
- T/C (dose: 150.0 mg/kg/injection, schedule: Q04DX003 (ip), vehicle: Klucel (hydroxypropylcellulose) (HPC)): 98 % of control
- T/C (dose: 300.0 mg/kg/injection, schedule: Q04DX003 (ip), vehicle: Klucel (hydroxypropylcellulose) (HPC)): 98 % of control

Compound: COC(=O)/C=C(/Sc1nc(Cl)c(Cl)nc1N)C(=O)OC (tested in a mixture with another compound)
- T/C (dose: 7.5 mg/kg/injection, schedule: Q01DX005 (ip), vehicle: Klucel (hydroxypropylcellulose) (HPC)): 103 % of control
- T/C (dose: 15.0 mg/kg/injection, schedule: Q01DX005 (ip), vehicle: Klucel (hydroxypropylcellulose) (HPC)): 113 % of control
- T/C (dose: 30.0 mg/kg/injection, schedule: Q01DX005 (ip), vehicle: Klucel (hydroxypropylcellulose) (HPC)): 113 % of control

Compound: CNc1onc(C)c1C
- T/C [8]: 103 % of control
- T/C [10]: 105 % of control
- T/C [12]: 100 % of control

Compound: CC1=CC=CC(C)(C(Cl)Cl)C1=O (configuration not stated)
- T/C [8]: 109 % of control
- T/C [10]: 104 % of control
- T/C [12]: 109 % of control

Compound: CCCCOP(=O)(OCCCC)OC(=C(F)F)C(F)(F)P(=O)(OCCCC)OCCCC
- T/C (dose: 6.25 mg/kg/injection, schedule: Q01DX009 (ip), vehicle: Klucel (hydroxypropylcellulose) (HPC)): 98 % of control
- T/C (dose: 12.5 mg/kg/injection, schedule: Q01DX009 (ip), vehicle: Klucel (hydroxypropylcellulose) (HPC)): 91 % of control
- T/C (dose: 25.0 mg/kg/injection, schedule: Q01DX009 (ip), vehicle: Klucel (hydroxypropylcellulose) (HPC)): 100 % of control

— PubChem BioAssay AID330 (DTP/NCI, 2004)
